One data set concerns ICR female mice. Briefly: Acute toxicity, single oral dose in mice. The note with it: mouse, in vivo. The procedure: The aromatic compounds of the formula (I) according to the present invention were orally administered to mice at the dose of 500 mg/kg, but no fatalities were observed over a period of one week.
Five-week-old ICR female mice (5 mice per group) were bred for acclimation for a week. Then, the compounds of the present invention were dissolved in water, and orally administered to the mice in a single dosage (500 mg/kg).

In data set [1] the target is T1, angiotensin II receptor subtype 2 (AT2) (Bos taurus, UniProt G5E6F7).
T1 construct: receptor : from cerebellar cortex in bovine; from tissue; host or cells: bovine cerebellar cortex
T1 sequence (G5E6F7 1-362): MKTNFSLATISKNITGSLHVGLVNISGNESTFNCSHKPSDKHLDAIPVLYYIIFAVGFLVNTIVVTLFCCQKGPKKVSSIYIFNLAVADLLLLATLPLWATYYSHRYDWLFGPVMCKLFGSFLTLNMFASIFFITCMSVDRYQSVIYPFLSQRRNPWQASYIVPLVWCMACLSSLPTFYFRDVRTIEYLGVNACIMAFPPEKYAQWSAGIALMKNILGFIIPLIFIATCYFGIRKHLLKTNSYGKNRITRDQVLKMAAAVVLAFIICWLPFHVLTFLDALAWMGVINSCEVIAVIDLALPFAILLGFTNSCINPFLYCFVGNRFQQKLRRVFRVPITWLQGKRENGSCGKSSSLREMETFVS
Briefly: Binding to receptors: angiotensin II receptor subtype 2 (AT2). The settings on record: bovine cerebellar cortex, tracer 125I-Tyr4-angiotensin II. As for the experimental part: In this Example, the affinity to the angiotensin II receptor subtype 1 or subtype 2 was evaluated by a binding assay in accordance with the method described in Biochem. Pharmacol., 33, 4057-4062 (1984).
Specifically, the measurement of the total binding in the presence of each drug was performed as follows:
A mixture (final volume=0.25 ml) of a drug in a given concentration (the drug was dissolved in DMSO, and diluted to a double volume with a buffer attached to a drug discovery system to prepare a sample for the assay; 0.025 ml), a tracer (0.025 ml), and receptors (0.2 ml) was incubated [in the case of the angiotensin II receptor subtype 1 (AT1), at room temperature for 3 hours, and in the case of the subtype 2 (AT2), at 37° C. for 1 hour]. Then, the reaction mixture was filtered with suction (GF/C filter was used in AT1, and GF/B filter was used in AT2). The filter papers after filtration with suction (the tracer bound to the receptors) were counted by a γ-well counter (ARC-500, Aloka). The non-specific bindings were measured by repeating the above method, except that a large excess amount of a displacer was added. The specific binding of the drug in the given concentration was calculated by subtracting the non-specific binding from the total binding, respectively.
In AT1 and AT2, the percentages found to inhibit the bindings of radioactive ligands (tracer) to receptors by the drugs to be tested (IC50 value of concentration to show 50% inhibition, or binding inhibition % in 100 μM) were measured, using the drugs to be tested and control drugs in the given concentration.
receptor : from cerebellar cortex in bovine
tracer : ^125 ITyr^4angiotensin II
control drug : angiotensin II (human)
(displacer) : angiotensin II (human)

This is an account of results in patent publication US5863913A, “Aromatic compound and pharmaceutical composition” (Kureha Chemical Industry Co., Ltd., priority 1996, dated 1999).

A word on the inhibition: it is the share of the control response that was lost under treatment.

`CCCCC(=O)N(Cc1ccc(C(=O)OCCN(C)C)cc1)c1cc(C(=O)N2CCOCC2)ccc1N(C)C` [Compound No. 1, 4-dimethylamino-3-N-[[[4-(2'-dimethylaminoethoxycarbonyl)phenyl]methyl]valeramido]benzoic acid morpholide]: the “Number of deaths/number of survivals” value in the data set with ICR female mice is reported as 0/5. This molecule registered an inhibition at 100 µM in data set [1] of 16%.

Consider `CCCCC(=O)N(Cc1ccc(C(=O)OCCCN(C)C)cc1)c1cc(C(=O)N2CCOCC2)ccc1N(C)C` [Compound No. 2, 4-dimethylamino-3-N-[[[4-(3'-dimethylaminopropoxycarbonyl)phenyl]methyl]valeramido]benzoic acid morpholide], for which the “Number of deaths/number of survivals” value in the data set on ICR female mice is reported as 0/5. Further, at 100 µM the inhibition in data set [1] was 0%.

`CCCCC(=O)N(Cc1ccc(C(=O)OCCCN)cc1)c1cc(C(=O)N2CCOCC2)ccc1N(C)C` [Compound No. 3, 3-N-[[[4-(3'-aminopropoxycarbonyl)phenyl]methyl]valeramido]-4-dimethylaminobenzoic acid morpholide]: the “Number of deaths/number of survivals” value in the data set with ICR female mice is listed as 0/5. Further, the inhibition at 100 µM in data set [1] was determined as 0%.

For `CCCCC(=O)N(Cc1ccc(C(=O)OCCN(C)C)cc1)c1cc(C(=O)N2CCOCC2)ccc1C(C)C` [Compound No. 6, 3-N-[[[4-(2'-dimethylaminoethoxycarbonyl)phenyl]methyl]valeramido]-4-i-propylbenzoic acid morpholide], the “Number of deaths/number of survivals” value in the data set on ICR female mice is 0/5. The same molecule gave an inhibition at 100 µM in data set [1] of 21%.

Take `CCCCC(=O)N(Cc1ccc(C(=O)OCCCN(C)C)cc1)c1cc(C(=O)N2CCOCC2)ccc1C(C)C` [Compound No. 7, 3-N-[[[4-(3'-dimethylamino-1'-propoxycarbonyl)phenyl]methyl]valeramido]-4-i-propylbenzoic acid morpholide]: the “Number of deaths/number of survivals” value in the data set on ICR female mice is 0/5. The molecule further had an inhibition at 100 µM in data set [1] of 0%.

As to `CCCCC(=O)N(Cc1ccc(C(=O)OCCN(CC)CC)cc1)c1cc(C(=O)N2CCOCC2)ccc1C(C)C` [Compound No. 8, 3-N-[[[4-(2'-diethylaminoethoxycarbonyl)phenyl]methyl]valeramido]-4-i-propylbenzoic acid morpholide], in the data set on ICR female mice, the “Number of deaths/number of survivals” value is reported as 0/5. In data set [1], this molecule returned an inhibition at 100 µM of 0%.

On to `CCCCC(=O)N(Cc1ccc(C(=O)OCCN2CCOCC2)cc1)c1cc(C(=O)N2CCOCC2)ccc1C(C)C` [Compound No. 9, 3-N-[[[4-(2'-morpholinoethoxycarbonyl)phenyl]methyl]valeramido]-i-propylbenzoic acid morpholide], for which, in the data set on ICR female mice, the “Number of deaths/number of survivals” value was 0/5. This molecule registered an inhibition at 100 µM in data set [1] of 0%.

For `CCCCCCC(=O)N(Cc1ccc(C(=O)O)cc1)c1cc(C(=O)N2CCN(CCC)CC2)ccc1N(C)C` [Compound No. 12, 4-dimethylamino-3-N-[[(4-carboxyphenyl)methyl]n-heptanamido]benzoic acid 4'-n-propyl piperazide], the “Number of deaths/number of survivals” value in the data set with ICR female mice is recorded as 0/5. Also, testing at 100 µM in data set [1] gave an inhibition of 0%.

Consider `CCCCCCC(=O)N(Cc1ccc(C(=O)O)cc1)c1cc(C(=O)N2CCN(C)CC2)ccc1N(C)C` [Compound No. 13, 3-[[(4-carboxyohenyl)methyl]n-heptanamido]-4-dimethylaminobenzoic acid 4'-methylpiperazide], for which, in the data set with ICR female mice, the “Number of deaths/number of survivals” value was 0/5. In data set [1], this molecule had an inhibition at 100 µM of 0%.

For the molecule `CCCCC(=O)N(Cc1ccc(C(=O)O)cc1)c1cc(C(=O)N2CCN(C)CC2)ccc1C(C)C` [Compound No. 15, 3-[[(4-carboxyphenyl)methyl]valeramido]-4-i-propylbenzoic acid 4'-methylpiperazide], the “Number of deaths/number of survivals” value in the data set with ICR female mice is given as 0/5. This molecule also came in with an inhibition at 100 µM in data set [1] of 0%.

Turning to `CCCCCCC(=O)N(Cc1ccc(C(=O)O)cc1)c1cc(C(=O)N2CCN(C)CC2)ccc1C(C)C` [Compound No. 18, 3-N-[[(4-carboxyphenyl)methyl]n-heptanamido]-4-i-propylbenzoic acid 4'-methylpiperazide], in the data set with ICR female mice, the “Number of deaths/number of survivals” value is reported as 0/5. In data set [1], 100 µM produced 9% inhibition.

In the case of `CCCCC(=O)N(Cc1ccc(C(=O)O)cc1)c1cc(C(=O)N2CCN(CCC)CC2)ccc1C(C)C` [Compound No. 19, 3-[[(4-carboxyphenyl)methyl]valeramido]-4-i-propylbenzoic acid 4'-n-propylpiperazide], the “Number of deaths/number of survivals” value in the data set with ICR female mice is recorded as 0/5. The same molecule gave an inhibition at 100 µM in data set [1] of 18%.

Turning to `CCCCCCC(=O)N(Cc1ccc(C(=O)O)cc1)c1cc(C(=O)N2CCN(CCC)CC2)ccc1C(C)C` [Compound No. 20, 3-N-[[(4-carboxyphenyl)methyl]n-heptanamido]-4-i-propylbenzoic acid 4'-n-propylpiperazide], the “Number of deaths/number of survivals” value with ICR female mice is 0/5. The inhibition at 100 µM in data set [1] was determined as 0%.
